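1) Cells in 96-well plates. 2) Compound, 48 h, 5 concentrations. 3) Linear interpolation between surrounding doses. 4) Unreached endpoint = highest concentration. At the GI50, growth is halved. TGI denotes the concentration required for complete inhibition of growth.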
How the values were obtained:
Assay in all cases: growth of human tumour cells (NCI), 48 h
EKVX NSCLC = system: EKVX NSCLC
NCI-H23 lung = system: NCI-H23 lung
UO-31 renal = system: UO-31 renal
HCC-2998 colon = system: HCC-2998 colon
SK-MEL-28 melanoma = system: SK-MEL-28 melanoma
LOX IMVI melanoma = system: LOX IMVI melanoma
OVCAR-8 ovarian = system: OVCAR-8 ovarian
RPMI-8226 leukemia = system: RPMI-8226 leukemia
HL-60(TB) leukemia = system: HL-60(TB) leukemia
IGROV1 ovarian = system: IGROV1 ovarian

Compound | GI50 (EKVX NSCLC) [µM] | TGI (EKVX NSCLC) [µM] | GI50 (NCI-H23 lung) [µM] | TGI (NCI-H23 lung) [µM] | GI50 (UO-31 renal) [µM] | TGI (UO-31 renal) [µM] | GI50 (HCC-2998 colon) [µM] | TGI (HCC-2998 colon) [µM] | GI50 (SK-MEL-28 melanoma) [µM] | TGI (SK-MEL-28 melanoma) [µM] | GI50 (LOX IMVI melanoma) [µM] | TGI (LOX IMVI melanoma) [µM] | GI50 (OVCAR-8 ovarian) [µM] | TGI (OVCAR-8 ovarian) [µM] | GI50 (RPMI-8226 leukemia) [µM] | TGI (RPMI-8226 leukemia) [µM] | GI50 (HL-60(TB) leukemia) [µM] | TGI (HL-60(TB) leukemia) [µM] | GI50 (IGROV1 ovarian) [µM] | TGI (IGROV1 ovarian) [µM]
O=[N+]([O-])c1ccccc1/C=N\NC(=S)N/N=C/c1ccccc1[N+](=O)[O-] | 8.11 | > 100 | 10.8 | > 100 | 5.66 | 87.3 | 20 | > 100 | 8.44 | > 100 | 6.48 | > 100 | 11.9 | > 100 | 5.91 | > 100 | 3.59 | > 100 | 3.67 | > 100
N[C@H]1CCC[C@@H](O)C1O (stereo partly drawn) |  | > 100 |  | > 100 |  | > 100 |  | > 100 |  | > 100 |  | > 100 |  | > 100 |  | > 100 |  | > 100 |  | > 100
CC(C)(C)OC(=O)NCCCCCCCCCn1c2c(c3ccccc3c1=O)C(=O)c1ccccc1-2 | 49.2 | > 100 | 37 | > 100 | > 100 | > 100 | > 100 | > 100 | > 100 | > 100 | 76.3 | > 100 | 56.1 | > 100 | > 100 | > 100 | > 100 | > 100 | 36.1 | > 100
CN(C)S(=O)(=O)c1cccc(C(=O)Nc2nc(-c3ccc(F)c(F)c3)cs2)c1 | 4 | > 76.2 | 10.3 | > 100 | 9.09 | > 100 | 58.9 | > 100 | 18.8 | > 100 | 24 | > 100 | 8.28 | > 100 | 4.51 | > 29.4 | 6.08 | > 100 | 28 | > 96.4
CN1CCN(C2=C(Cl)C(=O)c3ccccc3C2=O)CC1 | 3.05 | 11 | 1.72 | 3.65 | 1.22 | 2.63 | 2.05 | 4.51 | 1.75 | 3.18 | 1.6 | 3 | 1.74 | 3.59 | 3.09 | 9.61 | 2.39 | 5.84 | 1.88 | 4.32
N#CN1CC[C@@H]2CC3(CCC2C1)OCCO3 (stereo partly drawn) |  | > 100 |  | > 100 |  | > 100 |  | > 100 |  |  |  |  |  | > 100 |  | > 100 |  | > 100 |  | > 100
OCc1c(-c2cccs2)oc(-c2cccs2)c1CO | 34.6 | > 100 | 38.7 | > 100 | 50.5 | > 100 | 21.1 | 45.6 | > 100 | > 100 | 26.6 | 52.7 | 50.7 | > 100 | 41.5 | > 100 | 21.1 | 70 | 58.3 | > 100
